Measurements taken from ChEMBL document CHEMBL4725259 (Bioorg Med Chem, 2020).

Biological target: T1, 5-hydroxytryptamine receptor 2C (Homo sapiens, UniProt P28335)
T1 sequence (P28335 whole entry): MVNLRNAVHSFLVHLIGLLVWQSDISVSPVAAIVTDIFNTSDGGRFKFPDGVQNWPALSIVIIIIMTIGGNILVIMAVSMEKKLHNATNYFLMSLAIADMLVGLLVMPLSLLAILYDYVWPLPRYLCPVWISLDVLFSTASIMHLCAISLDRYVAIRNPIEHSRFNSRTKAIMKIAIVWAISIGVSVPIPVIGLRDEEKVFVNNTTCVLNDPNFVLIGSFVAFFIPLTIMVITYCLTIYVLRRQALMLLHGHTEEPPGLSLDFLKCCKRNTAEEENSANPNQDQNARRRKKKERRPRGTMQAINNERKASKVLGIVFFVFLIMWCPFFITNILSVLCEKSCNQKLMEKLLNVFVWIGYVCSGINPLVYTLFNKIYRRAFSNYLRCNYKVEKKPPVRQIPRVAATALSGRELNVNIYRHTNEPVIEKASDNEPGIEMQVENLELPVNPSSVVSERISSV
Assay: Antagonist activity at HTR2C in human U2OS cells by PathHunter beta-arrestin assay
Format: cell-based

IC50: 180 nM
Compound: COC(=O)[C@@H]1[C@H]2C[C@@H](c3[nH]c4ccccc4c3CCn3cc(-c4cccc(Cl)c4)nn3)N(C#N)C[C@@H]2CC[C@@H]1O
